Results as given in US11311520B2, “Substituted dihydroimidazopyridinediones as MKNK1 and MKNK2 inhibitors” (Bayer Pharma Aktiengesellschaft, priority 2017, dated 2022).

Each compound was assayed against human full-length MKNK1 (Homo sapiens (Human), UniProt Q9BUB5, T344D) (assay: MKNK1 kinase high ATP assay (TR-FRET)). Details: 2 mM ATP, 15 min preincubation with enzyme, GST-MKNK1 (T344D).
Type: biochemical
Method: MKNK1 Kinase High ATP Assay
MKNK1-inhibitory activity at high ATP of compounds of the present invention after their preincubation with MKNK1 was quantified employing the TR-FRET-based MKNK1 high ATP assay as described in the following paragraphs.
A recombinant fusion protein of Glutathione-S-Transferase (GST, N-terminally) and human full-length MKNK1 (amino acids 1-424 and T344D of accession number BAA 19885.1), expressed in insect cells using baculovirus expression system and purified via glutathione sepharose affinity chromatography, was purchased from Carna Biosciences (product no 02-145) and used as enzyme. As substrate for the kinase reaction the biotinylated peptide biotin-Ahx-IKKRKLTRRKSLKG (SEQ ID NO: 1) (C-terminus in amide form) was used, which can be purchased e.g. from the company Biosyntan (Berlin-Buch, Germany)
For the assay 50 nL of a 100 fold concentrated solution of the test compound in DMSO was pipetted into a black low volume 384 well microtiter plate (Greiner Bio-One, Frickenhausen, Germany), 2 μL of a solution of MKNK1 in aqueous assay buffer [50 mM HEPES pH 7.5, 5 mM MgCl2, 1.0 mM dithiothreitol, 0.005% (v/v) Nonidet-P40 (Sigma)] was added and the mixture was incubated for […] at 22° C. to allow pre-binding of the test compounds to the enzyme before the start of the kinase reaction. Then the kinase reaction was started by the addition of 3 μL of a solution of adenosine-tri-phosphate (ATP, 3.3 mM=>final conc. in the 5 μL assay volume is 2 mM) and substrate (0.1 μM=>final conc. in the 5 μL assay volume is 0.06 μM) in assay buffer and the resulting mixture was incubated for a reaction time of 30 min at 22° C. The concentration of MKNK1 was adjusted depending of the activity of the enzyme lot and was chosen appropriate to have the assay in the linear range, typical concentrations were in the range of 0.003 μg/mL. The reaction was stopped by the addition of 5 μL of a solution of TR-FRET detection reagents (5 nM streptavidine-XL665 [Cisbio Bioassays, Codolet, France] and 1 nM anti-ribosomal protein S6 (pSer236)-antibody from Invitrogen [#44921G] and 1 nM LANCE EU-W1024 labeled ProteinG [Perkin-Elmer, product no. AD0071]) in an aqueous EDTA-solution (100 mM EDTA, 0.1% (w/v) bovine serum albumin in 50 mM HEPES pH 7.5).
The resulting mixture was incubated for 1 h at 22° C. to allow the formation of complex between the phosphorylated biotinylated peptide and the detection reagents. Subsequently the amount of phosphorylated substrate was evaluated by measurement of the resonance energy transfer from the Eu-chelate to the streptavidine-XL. Therefore, the fluorescence emissions at 620 nm and 665 nm after excitation at 350 nm were measured in a TR-FRET reader, e.g. a Rubystar (BMG Labtechnologies, Offenburg, Germany) or a Viewlux (Perkin-Elmer). The ratio of the emissions at 665 nm and at […] was taken as the measure for the amount of phosphorylated substrate. The data were normalised (enzyme reaction without inhibitor=0% inhibition, all other assay components but no enzyme=100% inhibition).

Sequence of human full-length MKNK1 (Q9BUB5 other isoform, or with tags, fused parts or gaps T344D): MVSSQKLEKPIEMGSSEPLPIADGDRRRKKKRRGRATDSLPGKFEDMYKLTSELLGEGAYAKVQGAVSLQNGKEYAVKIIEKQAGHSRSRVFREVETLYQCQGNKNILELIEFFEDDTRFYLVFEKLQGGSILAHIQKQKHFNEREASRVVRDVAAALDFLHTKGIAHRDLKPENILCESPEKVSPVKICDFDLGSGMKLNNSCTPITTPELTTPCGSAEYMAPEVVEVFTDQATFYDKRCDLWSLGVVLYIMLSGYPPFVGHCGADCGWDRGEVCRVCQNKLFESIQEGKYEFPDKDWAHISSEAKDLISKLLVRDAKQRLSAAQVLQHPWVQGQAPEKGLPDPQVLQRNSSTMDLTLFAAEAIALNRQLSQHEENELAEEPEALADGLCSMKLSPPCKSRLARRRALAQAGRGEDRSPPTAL

In order of rising IC50:
1. Cc1cc(Nc2ncnc3[nH]ccc23)c(=O)n2c1C(=O)NC21CCCCC1 [Example 6, 8′-Methyl-6′-(7H-pyrrolo[2,3-d]pyrimidin-4-ylamino)-2′H-spiro[cyclohexane-1,3′-imidazo[1,5-a]pyridine]-1′,5′-dione]  0.3 nM
2. Cc1cc(Nc2ncnc3[nH]ncc23)c(=O)n2c1C(=O)NC21CCCCC1 [Example 7, 8′-Methyl-6′-(1H-pyrazolo[3,4-d]pyrimidin-4-ylamino)-2′H-spiro[cyclohexane-1,3′-imidazo[1,5-a]pyridine]-1′,5′-dione]  2 nM
3. Cc1cc(Nc2ncnc(NC(=O)C3CC3)n2)c(=O)n2c1C(=O)NC21CCCCC1 [Example 1, N-{4-[(8′-Methyl-1′,5′-dioxo-1′,5′-dihydro-2′H-spiro[cyclohexane-1,3′-imidazo[1,5-a]pyridin]-6′-yl)amino]-1,3,5-triazin-2-yl}cyclopropanecarboxamide]  2.5 nM
4. Cc1cc(Nc2ncnc3sc(C(=O)N4CCC(N(C)C)CC4)cc23)c(=O)n2c1C(=O)NC21CCCCC1 [Example 14, 6′-[(6-{[4-(Dimethylamino)piperidin-1-yl]carbonyl}thieno[2,3-d]pyrimidin-4-yl)amino]-8′-methyl-2′H-spiro[cyclohexane-1,3′-imidazo[1,5-a]pyridine]-1′,5′-dione]  4.1 nM
5. Cc1cc(Nc2ncnc3sc(C(=O)N(C)CCN(C)C)cc23)c(=O)n2c1C(=O)NC21CCCCC1 [Example 13, N-[2-(Dimethylamino)ethyl]-N-methyl-4-[(8′-methyl-1′,5′-dioxo-1′,5′-dihydro-2′H-spiro[cyclohexane-1,3′-imidazo[1,5-a]pyridin]-6′-yl)amino]thieno[2,3-d]pyrimidine-6-carboxamide]  5.2 nM
6. Cc1cc(Nc2ncnc(N)n2)c(=O)n2c1C(=O)NC21CCCCC1 [Example 2, 6′-[(4-Amino-1,3,5-triazin-2-yl)amino]-8′-methyl-2′H-spiro[cyclohexane-1,3′-imidazo[1,5-a]pyridine]-1′,5′-dione]  6.4 nM
7. Cc1cc(Nc2ncnc3sccc23)c(=O)n2c1C(=O)NC21CCCCC1 [Example 5, 8′-Methyl-6′-(thieno[2,3-d]pyrimidin-4-ylamino)-2′H-spiro[cyclohexane-1,3′-imidazo[1,5-a]pyridine]-1′,5′-dione]  6.4 nM
8. Cc1cc(Nc2ccnc3[nH]ccc23)c(=O)n2c1C(=O)NC21CCCCC1 [Example 22, 8′-Methyl-6′-(1H-pyrrolo[2,3-b]pyridin-4-ylamino)-2′H-spiro[cyclohexane-1,3′-imidazo[1,5-a]pyridine]-1′,5′-dione]  12.3 nM
9. Cc1cc(Nc2ncnc3sc(C(=O)N(C)C)cc23)c(=O)n2c1C(=O)NC21CCCCC1 [Example 10, N,N-Dimethyl-4-[(8′-methyl-1′,5′-dioxo-1′,5′-dihydro-2′H-spiro[cyclohexane-1,3′-imidazo[1,5-a]pyridin]-6′-yl)amino]thieno[2,3-d]pyrimidine-6-carboxamide]  17.1 nM
10. CCCNC(=O)Nc1ncnc(Nc2cc(C)c3n(c2=O)C2(CCCCC2)NC3=O)n1 [Example 3, 1-{4-[(8′-Methyl-1′,5′-dioxo-1′,5′-dihydro-2′H-spiro[cyclohexane-1,3′-imidazo[1,5-a]pyridin]-6′-yl)amino]-1,3,5-triazin-2-yl}-3-propylurea]  18.8 nM
11. Cc1cc(Nc2ncnc3sc(C(=O)O)c(C)c23)c(=O)n2c1C(=O)NC21CCCCC1 [Example 15, 5-Methyl-4-[(8′-methyl-1′,5′-dioxo-1′,5′-dihydro-2′H-spiro[cyclohexane-1,3′-imidazo[1,5-a]pyridin]-6′-yl)amino]thieno[2,3-d]pyrimidine-6-carboxylic acid]  21.3 nM
12. Cc1cc(Nc2ncnc3sc(C(=O)N4CCN(C)CC4)cc23)c(=O)n2c1C(=O)NC21CCCCC1 [Example 12, 8′-Methyl-6′-({6-[(4-methylpiperazin-1-yl)carbonyl]thieno[2,3-d]pyrimidin-4-yl}amino)-2′H-spiro[cyclohexane-1,3′-imidazo[1,5-a]pyridine]-1′,5′-dione]  27.2 nM
13. Cc1cc(Nc2ncnc3ccccc23)c(=O)n2c1C(=O)NC21CCCCC1 [Example 8, 8′-Methyl-6′-(quinazolin-4-ylamino)-2′H-spiro[cyclohexane-1,3′-imidazo[1,5-a]pyridine]-1′,5′-dione]  28.3 nM
14. Cc1cc(Nc2ncnc3sc(C(=O)N4CCN(C)CC4)c(C)c23)c(=O)n2c1C(=O)NC21CCCCC1 [Example 19, 8′-methyl-6′-({5-methyl-6-[(4-methylpiperazin-1-yl)carbonyl]thieno[2,3-d]pyrimidin-4-yl}amino)-2′H-spiro[cyclohexane-1,3′-imidazo[1,5-a]pyridine]-1′,5′-dione]  34.2 nM
15. Cc1cc(Nc2ncnc3sc(C(=O)N4CCC(N(C)C)CC4)c(C)c23)c(=O)n2c1C(=O)NC21CCCCC1 [Example 20, 6′-[(6-{[4-(Dimethylamino)piperidin-1-yl]carbonyl}-5-methylthieno[2,3-d]pyrimidin-4-yl)amino]-8′-methyl-2′H-spiro[cyclohexane-1,3′-imidazo[1,5-a]pyridine]-1′,5′-dione]  35.2 nM
16. COCCN(C)C(=O)c1cc2c(Nc3cc(C)c4n(c3=O)C3(CCCCC3)NC4=O)ncnc2s1 [Example 11, N-(2-Methoxyethy)-N-methyl-4-[(8′-methyl-1′,5′-dioxo-1′,5′-dihydro-2′H-spiro[cyclohexane-1,3′-imidazo[1,5-a]pyridin]-6′-yl)amino]thieno[2,3-d]pyrimidine-6-carboxamide]  36.9 nM
17. Cc1cc(Nc2ncnc3sc(C(=O)N(C)CCN(C)C)c(C)c23)c(=O)n2c1C(=O)NC21CCCCC1 [Example 17, N-[2-(dimethylamino)ethyl]-N,5-dimethyl-4-[(8′-methyl-1′,5′-dioxo-1′,5′-dihydro-2′H-spiro[cyclohexane-1,3′-imidazo[1,5-a]pyridin]-6′-yl)amino]thieno[2,3-d]pyrimidine-6-carboxamide]  40.3 nM
18. Cc1cc(Nc2ncnc3sc(C(=O)N(C)C)c(C)c23)c(=O)n2c1C(=O)NC21CCCCC1 [Example 16, N,N,5-trimethyl-4-[(8′-methyl-1′,5′-dioxo-1′,5′-dihydro-2′H-spiro[cyclohexane-1,3′-imidazo[1,5-a]pyridin]-6′-yl)amino]thieno[2,3-d]pyrimidine-6-carboxamide]  66.7 nM
19. Cc1cc(Nc2ncnc3sc(C(=O)O)cc23)c(=O)n2c1C(=O)NC21CCCCC1 [Example 9, 4-[(8′-Methyl-1′,5′-dioxo-1′,5′-dihydro-2′H-spiro[cyclohexane-1,3′-imidazo[1,5-a]pyridin]-6′-yl)amino]thieno[2,3-d]pyrimidine-6-carboxylic acid]  82.6 nM
20. COCCN(C)C(=O)c1sc2ncnc(Nc3cc(C)c4n(c3=O)C3(CCCCC3)NC4=O)c2c1C [Example 18, N-(2-methoxyethyl)-N,5-dimethyl-4-[(8′-methyl-1′,5′-dioxo-1′,5′-dihydro-2′H-spiro[cyclohexane-1,3′-imidazo[1,5-a]pyridin]-6′-yl)amino]thieno[2,3-d]pyrimidine-6-carboxamide]  105 nM
21. Cc1cc(Nc2ccnc3ccccc23)c(=O)n2c1C(=O)NC21CCCCC1 [Example 4, 8′-Methyl-6′-(quinolin-4-ylamino)-2′H-spiro[cyclohexane-1,3′-imidazo[1,5-a]pyridine]-1′,5′-dione]  306 nM
22. Cc1cc(Nc2ccnc(N)n2)c(=O)n2c1C(=O)NC21CCCCC1 [Example 21, 6′-[(2-Aminopyrimidin-4-yl)amino]-8′-methyl-2′H-spiro[cyclohexane-1,3′-imidazo[1,5-a]pyridine]-1′,5′-dione]  339 nM
23. Cc1cc(Nc2ncnc3c2ncn3CC(C)O)c(=O)n2c1C(=O)NC21CCCCC1 (racemic) [Example 39, (RS)-6′-{[9-(2-Hydroxypropyl)-9H-purin-6-yl]amino}-8′-methyl-2′H-spiro[cyclohexane-1,3′-imidazo[1,5-a]pyridine]-1′,5′-dione]  744 nM
